According to patent US7576135B2, “Diamine derivatives” (Daiichi Pharmaceutical Co., Ltd., priority 2002, dated 2009):
Counter-ions that a name gives are not always drawn.

target: T1, human FXa (Homo sapiens, UniProt P00742); test: Determination of human FXa-inhibiting effect (IC50 value), chromogenic substrate S-2222; assay type: biochemical; conditions: substrate S-2222, absorbance at 405 nm, room temperature
T1 construct: purchased Enzyme Research Labolatories, Inc
Source text: Determination of Human FXa-Inhibiting Effect (IC50 Value):
As a control, Tris buffer was used in place of the test compound.

T1 sequence (P00742 235-488 limits assumed): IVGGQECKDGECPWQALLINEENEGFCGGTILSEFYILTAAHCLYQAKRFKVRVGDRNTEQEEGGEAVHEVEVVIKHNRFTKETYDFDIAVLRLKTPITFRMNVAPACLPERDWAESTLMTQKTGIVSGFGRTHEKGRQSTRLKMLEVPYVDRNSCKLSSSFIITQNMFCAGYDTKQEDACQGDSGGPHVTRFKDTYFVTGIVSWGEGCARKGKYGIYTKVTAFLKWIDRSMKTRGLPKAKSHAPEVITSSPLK
T1 sequence (P00742 41-179 partner limits assumed): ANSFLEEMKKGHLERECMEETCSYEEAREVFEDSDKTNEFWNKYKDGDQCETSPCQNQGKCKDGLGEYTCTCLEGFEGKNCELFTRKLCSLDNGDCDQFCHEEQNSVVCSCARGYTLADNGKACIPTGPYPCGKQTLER

Row | IC50 [nM] | Structure (SMILES)
1 | 1 | Cc1nnc([C@H]2CC[C@H](NC(=O)C(=O)Nc3ccc(Cl)cn3)[C@H](NC(=O)c3nc4c(s3)CN(C)CC4)C2)o1 [Ex. 384, N^1-(5-chloropyridin-2-yl)-N^2-[(1S,2R,4S)-2-{[(5-methyl-4,5,6,7-tetrahydrothiazolo[5,4-c]pyridin-2-yl)carbonyl]amino}-4-(5-methyl-1,3,4-oxadiazol-2-yl)cyclohexyl]ethanediamide hydrochloride]
2 | 1.1 | C#Cc1ccc(NC(=O)C(=O)N[C@H]2CC[C@H](c3nnc(C)o3)C[C@H]2NC(=O)c2nc3c(s2)CN(C)CC3)nc1 [Ex. 402, N^1-(5-ethynylpyridin-2-yl)-N^2-((1S,2R,4S)-4-(5-methyl-1,3,4-oxadiazol-2-yl)-2-{[(5-methyl-4,5,6,7-tetrahydrothiazolo[5,4-c]pyridin-2-yl)carbonyl]amino}cyclohexyl)ethanediamide]
3 | 1.1 | Cc1nnc([C@H]2CC[C@H](NC(=O)C(=O)Nc3ccc(Br)cn3)[C@H](NC(=O)c3nc4c(s3)CN(C)CC4)C2)o1 [Ex. 396, N^1-(5-bromo-2-pyridinyl)-N^2-((1S,2R,4S)-4-(5-methyl-1,3,4-oxadiazol-2-yl)-2-{[(5-methyl-4,5,6,7-tetrahydrothiazolo[5,4-c]pyridin-2-yl)carbonyl]amino}cyclohexyl)ethanediamide hydrochloride]
4 | 1 | CN1CCc2nc(C(=O)N[C@@H]3C[C@@H](n4cccc4)CC[C@@H]3NC(=O)C(=O)Nc3ccc(Cl)cn3)sc2C1 [Ex. 413, N^1-(5-chloropyridin-2-yl)-N^2-[(1S,2R,4S)-2-{[(5-methyl-4,5,6,7-tetrahydrothiazolo[5,4-c]pyridin-2-yl)carbonyl]amino}-4-(1H-pyrrol-1-yl)cyclohexyl]ethanediamide hydrochloride]
5 | 1.3 | CN1CCc2nc(C(=O)N[C@@H]3C[C@@H](c4nnco4)CC[C@@H]3NC(=O)C(=O)Nc3ccc(Cl)cn3)sc2C1 [Ex. 385, N^1-(5-chloropyridin-2-yl)-N^2-[(1S,2R,4S)-2-{[(5-methyl-4,5,6,7-tetrahydrothiazolo[5,4-c]pyridin-2-yl)carbonyl]amino}-4-(1,3,4-oxadiazol-2-yl)cyclohexyl]ethanediamide]
6 | 1.1 | CN1CCc2nc(C(=O)N[C@@H]3C[C@@H](n4cnnc4)CC[C@@H]3NC(=O)C(=O)Nc3ccc(Cl)cn3)sc2C1 [Ex. 394, N^1-(5-chloropyridin-2-yl)-N^2-(1S,2R,4S)-2-{[(5-methyl-4,5,6,7-tetrahydrothiazolo[5,4-c]pyridin-2-yl)carbonyl]amino}-4-(4H-1,2,4-triazol-4-yl)cyclohexyl)ethanediamide hydrochloride]
7 | 0.72 | Cc1nnc([C@H]2CC[C@H](NC(=O)C(=O)Nc3ccc(Cl)s3)[C@H](NC(=O)c3nc4c(s3)CN(C)CC4)C2)o1 [Ex. 395, N^1-(5-chloro-2-thienyl)-N^2-((1S,2R,4S)-4-(5-methyl-1,3,4-oxadiazol-2-yl)-2-{[(5-methyl-4,5,6,7-tetrahydrothiazolo[5,4-c]pyridin-2-yl)carbonyl]amino}cyclohexyl)ethanediamide citric acid salt]

system: not given; test: not given; conditions: not given

Row | melting point | Structure (SMILES)
8 | 176 to 179 °C (dec.) | CN1CCc2nc(C(=O)N[C@@H]3C[C@@H](C(=O)N(C)C)CC[C@@H]3NC(=S)C(=O)Nc3ccc(F)cn3)sc2C1 (hydrate or solvate)
9 | 244 to 249 °C | CN1CCc2nc(C(=O)N[C@@H]3CCS(=O)(=O)C[C@H]3NC(=O)c3cc4cc(F)ccc4[nH]3)sc2C1 (relative stereo) (as salt: hydrochloride) [Example 183, N-((3R*,4R*)-3-{[(5-Fluoroindol-2-yl)carbonyl]amino}-1,1-dioxohexahydro-1-thiopyran-4-yl)-5-methyl-4,5,6,7-tetrahydrothiazolo[5,4-c]pyridine-2-carboxamide hydrochloride]
